Data published in patent US20100331363A1, “TREATMENT OF MITOCHONDRIAL DISORDERS USING A FARNESYL TRANSFERASE INHIBITOR” (Link Medicine Corporation, priority 2008, published 2010).
“Also recorded” adds a separate entry of the source.

Columns and labels:
[1] = test system: isolated islet cells; test: Insulin secretion assay, isolated islet cells; type: cell-based; settings: for increase in insulin stimulation: 10 nM, high glucose conditions (15 mM)
Method: One example of such an assay is as follows: prior to glucose-induced insulin secretion, cells were cultured for two hours in RPMI containing 3 mM glucose without serum. Cells were then washed and preincubated for 30 min in modified Krebs-Ringer bicarbonate buffer (KRB) containing (in mM): 119 NaCl, 4.6 KCl, 5 NaHCO3, 2 CaCl2, 1 MgSO4, 0.15 Na2HPO4, 0.4 KH2PO4, 20 HEPES, 2 glucose, 0.05% BSA, pH 7.4. This was followed by 30 min incubation in media containing either 3 mM glucose (to simulate low glucose conditions) or 15 mM glucose (to simulate high glucose conditions). Media are treated with varying concentrations of compound (1 nM and 10 nM). Media was collected and stored at −20° C. for insulin measurement. Insulin was measured by ELISA.
In both graphs, insulin is measured in (pictogram/ml). […] The amount of insulin secretion stimulated is dependent on the concentration of compound, incubation time, and cell-type. […] This distinguishes the effect of LNK-754 from sulfonyl urea compounds, the current standard oral anti-diabetic drug which increases insulin secretion under all conditions (not desired).

[2] = test system: human α-synuclein; test: Masliah D-line α-synuclein transgenic mouse, α-synuclein immunoreactivity and ELISA; type: in vivo; settings: 0.09 mg/kg, second trial (FIG. 2B)
[3] = test system: INS-1 cells; test: Whole cell mitochondrial fusion assay (paGFP) in INS-1 cells; type: cell-based; settings: 1 nM, 48 hours
From the text: Mitochondrial dynamics is necessary for the maintenance of bioenergetic functions and maintenance of homogenous population of mitochondria. Mutations in Mfn2 and Opal have been implicated in neuropathies. A whole cell fusion assay was used to evaluate the effect of LNK-754 on the enhancement of mitochondrial fusion and fission events. Photo-activateable GFP is used to label and follow an individual mitochondrion. Photo-activatable GFP becomes fluorescent only after absorbing UV light. Mitochondria undergo frequent fusion and fission. During fusion, the labeled mitochondrion passes fluorescent GFP to a neighboring unlabeled mitochondrion (Molina and Shirihai, […], 2009). […] The following assay protocol was followed: paGFP expression was carried out using adenoviral transduction if INS-1 cells. The cells were treated for 48 hours with 1 nM LNK-754. Mitochondria were labeled with TMRE to facilitate tagging. UV pulse was delivered by two-photon laser. Z-stacks of individual cells were taken every 5 minutes for 30 minutes. Three separate runs were performed over 3 weeks at imaging facilities.

[4] = test system: p70 S6 kinase (S6K) phosphorylation, mTOR pathway; test: p70 S6 kinase phosphorylation in SH-SY5Y cells; type: cell-based, human; settings: SH-SY5Y (FIG. 8f)
From the text: Rapamycin is a well-characterized autophagy stimulator that acts through inhibition of mTOR, a kinase involved in nutrient signaling and regulation of cell growth and survival.

[5] = test system: aged non-transgenic rats; test: Morris water maze in aged non-transgenic rats; type: in vivo, rat; settings: aged rats 22 months, 0.3 mg/kg and 0.9 mg/kg once every 24 hours
From the text: Morris water maze (MWM) analysis of cognitive performance: In APP/PS1 transgenic animals, swimming behavior in a Morris Water Maze was videotaped and analyzed (Ethovision, Noldus, Wageningen, Netherlands). For mice, a place navigation test was used to locate the hidden platform in five blocks of three trials over three consecutive days. Each trial consists of a forced swim test of maximum 120 seconds, followed by 60 seconds of rest. The time each mouse needed for location of the platform was measured. For rats, a cued learning phase was first conducted, consisting of 3 trials per day for 5 days, using a visible platform of varying location. Each trial consisted of a forced swim test of maximum 60 seconds, followed by 10 minutes of rest. The time and path length each rat needed to locate the platform was measured.
In order to rule out the possibility that the rapid observed improvement in cognition described above arose from an alternative, transgene-independent mechanism, aged non-transgenic rats (22 months old) were treated with LNK-754-TS (0.3 mg/kg and 0.9 mg/kg, once every 24 hours) and their cognitive performance was measured by MWM and compared to that of younger rats (3 months old) of the same strain.

[6] = test system: 3T3H-ras (61 L) xenograft; settings: cited from earlier work
[7] = test system: Ras; test: Soluble/cytoplasmic Ras level in frontal cortex of alpha-synuclein transgenic mice; type: in vivo, mouse; settings: 0.09 mg/kg or 9 mg/kg b.i.d. 3 months vs vehicle
Method: The level of inhibition of Ras in brain by LNK-754-TS, dosed at an efficacious dose for efficacy in animal models of proteinopathy-dependent neurodegeneration, was investigated. Alpha-synuclein transgenic mice were treated for 3 months b.i.d. with vehicle or LNK-754-TS at 0.09 mg/kg or 9 mg/kg. Cortical tissue was extracted and homogenized, followed by isolation of soluble/cytosolic proteins in detergent-free buffer (50 mM Tris-HCl pH 7.4, 140 mM NaCl, 2 mM EDTA, Protease inhibitor cocktail) by centrifugation. 15 micrograms of protein lysate was analyzed per lane of SDS-PAGE gel, and immunoblotted for Ras and actin (FIG. 6). Densitometry was used to quantify the Ras/actin ratio for each sample, and results were plotted (FIG. 7). […] This contrasts with what is observed in xenograft cancer models, where inhibition of Ras farnesylation by high dose FTIs is directly correlated with efficacy (FIG. 3 and Example 3).

## C#Cc1cccc(-c2cc(=O)n(C)c3ccc([C@](O)(c4ccc(Cl)cc4)c4cncn4C)cc23)c1 [LNK-754, (R)-6-[(4-chlorophenyl)-hydroxyl-(1-methyl-1-H-imidazol-5-yl)-methyl]-4-(3-ethynylphenyl)-1-methyl-2-(1H)-quinonlinone]
[1]; 2.5 days of incubation
  increase in insulin stimulation: ~75%
[1]; 3 days of incubation
  increase in insulin stimulation: ~55%
[1]; basal glucose (3 nM)
  insulin secretion under basal glucose conditions: not under basal glucose conditions; also recorded: does not affect basal insulin secretion
[2]
  number of α-synuclein positive neurons: significantly lowered
[3]
  mitochondrial dynamics (fusion and fission): promotes mitochondrial dynamics

## C#Cc1cccc(-c2cc(=O)n(C)c3ccc([C@](O)(c4ccc(Cl)cc4)c4cncn4C)cc23)c1 [LNK-754-TS, (R)-6-[(4-chlorophenyl)-hydroxyl-(1-methyl-1-H-imidazol-5-yl)-methyl]-4-(3-ethynylphenyl)-1-methyl-2-(1H)-quinonlinone (2S, 3S)-dihydroxybutanedioate]
[4]
  phosphorylation of p70 S6 kinase (S6K): did not inhibit phosphorylation
[5]
  cognitive performance, Morris water maze (place learning, probe tests): no significant cognitive improvement
[6]; 25 mg/kg, lowest dose tested
  efficacy against tumor growth: borderline efficacy
[6]; 10 days BID, 3T3H-ras (61 L) xenograft athymic mouse
  dose required for suppression of tumor growth: at least 25 mg per kg
[7]
  soluble Ras/actin level in cortex: No significant differences
